Experimental data reported in US5663296A, “Hydroxamate inhibitors of endothelin converting enzyme” (Warner-Lambert Company, priority 1995, dated 1997).
Counter-ions that a name gives are not always drawn. *1 amine or outer side, *2 acyl side, *3 side chain or, on linkers, in order; H or OH if unused. Where a SMILES comes first, the peptide text is derived from it. [ ]: non-standard residue; d: D form. The star is where a group is joined. Trp(1-formyl) = O=Cn1cc(C[C@H](N[*:1])C(=O)[*:2])c2ccccc21; Sta = CC(C)C[C@H](N)[C@@H](O)CC(=O)O; Suc = O=C(CCC(=O)[*:2])[*:1]; Isovaleryl = CC(C)CC(=O)*; Aun = NCCCCCCCCCCC(=O)O; Boc = CC(C)(C)OC(=O)*; NHOH = ON*

How the values were obtained:
allergic sheep = conditions: cited from earlier work
mouse = mouse model of endotoxic shock; cited from earlier work
[1] = biological target: T1, endothelin converting enzyme (ECE) (Homo sapiens, UniProt P42892); experiment: ECE activity assay, ir-ET-1 formed from big ET measured by radioimmunoassay; assay type: biochemical
T1 sequence (P42892 1-770): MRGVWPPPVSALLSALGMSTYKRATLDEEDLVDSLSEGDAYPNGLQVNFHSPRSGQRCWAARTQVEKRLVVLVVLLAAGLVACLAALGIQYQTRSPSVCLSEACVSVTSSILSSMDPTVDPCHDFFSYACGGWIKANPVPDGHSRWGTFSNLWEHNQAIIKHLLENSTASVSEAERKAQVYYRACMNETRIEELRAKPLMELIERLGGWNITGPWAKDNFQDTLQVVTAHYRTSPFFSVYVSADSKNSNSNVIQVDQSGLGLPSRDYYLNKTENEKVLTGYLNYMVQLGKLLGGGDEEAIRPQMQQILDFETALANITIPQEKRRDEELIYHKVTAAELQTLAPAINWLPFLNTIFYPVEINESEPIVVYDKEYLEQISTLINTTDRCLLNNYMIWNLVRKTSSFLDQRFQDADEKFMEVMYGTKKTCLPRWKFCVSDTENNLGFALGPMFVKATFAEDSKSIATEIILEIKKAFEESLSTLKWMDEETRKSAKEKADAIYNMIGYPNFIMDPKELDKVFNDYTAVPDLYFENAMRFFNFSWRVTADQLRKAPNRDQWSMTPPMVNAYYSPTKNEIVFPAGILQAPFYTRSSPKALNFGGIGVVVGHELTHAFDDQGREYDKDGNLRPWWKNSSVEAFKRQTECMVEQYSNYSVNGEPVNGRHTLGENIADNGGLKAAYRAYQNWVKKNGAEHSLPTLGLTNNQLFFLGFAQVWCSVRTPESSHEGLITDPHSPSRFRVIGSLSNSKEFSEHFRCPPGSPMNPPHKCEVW
Method: ECE Activity Assay: The typical reaction mixture (50 μL) contained 10 μM big ET, 100 mM Hepes-KOH (pH 7.0), 0.25% Triton X-100, 0.01% NaN3, 0.2 mM phenylmethylsulfonyl fluoride, 50 μM pepstatin A, 0.1 mM leupeptin, the indicated concentration of compound (or DMSO for control), and the indicated amount of protein. The final DMSO concentration was kept at 3%. After incubation for 1.5 hours at 37° C., the reaction was stopped by the addition of EDTA to a final concentration of 10 mM. This final mixture was diluted (usually 100-fold) with the radioimmunoassay buffer (see below) and used for radioimmunoassay.
Radioimmunoassay (RIA): For the measurement of immunoreactive (ir) ET-1, the assay mixture (250 μL) contained the antibody against ET-1, an ET-1 sample, and [^125 I]ET-1 (7000 cpm) in the radioimmunoassay buffer (60 mM potassium phosphate (KPi), pH 7.4/10 mM, EDTA/8 mM, NaN3 /3% DMSO/0.1% bovine serum albumin/0.1% Tween 20). The order of the addition was ET-1 sample, followed by antibody, then [^125 I]ET-1. After incubation at 4° C. for 0.5 to 2 days, unbound ET-1 was co-precipitated by the addition of charcoal (2.4%, w/v)/dextran (0.24%, w/v) suspension (125 μL) in the RIA buffer with BSA replacedby gelatin (0.25%, w/v). The amount of ir-ET-1 was measured by counting the supernatant and determined from the standard curve. The cross-reactivity to big ET-1 was less than 0.01% and the detection limit was 1 Fmol.

rats [2] = conditions: cited from earlier work
rats [3] = conditions: cited from earlier work; remark: listed apart in the source
[4] = system: cultured bovine aortic endothelial cells; conditions: intracellular accumulation; cited from earlier work
[5] = system: cultured vascular endothelial cells and smooth muscle cells; conditions: cited from earlier work
anaesthetized pigs = conditions: cited from earlier work
[6] = system: pressor response of big ET; conditions: micromolar concentrations; in vitro and in vivo; cited from earlier work

## CC(C)C[C@@H]1NC(=O)[C@@H](C(C)C)NC(=O)[C@@H]2CCCN2C(=O)[C@@H](CC(=O)O)NC(=O)[C@@H](Cc2c[nH]c3ccccc23)NC1=O [BQ-123] (cyclo(L[dW][dD]P[dV]))
Allergic sheep
  ET-1-induced bronchoconstriction and tracheal smooth muscle contraction: block ET-1-induced bronchoconstriction and tracheal smooth muscle contraction
mouse
  survival rate: significantly increased the survival rate

## CC[C@H](C)[C@H](NC(=O)OC(C)(C)C)C(=O)N[C@H](C(=O)N[C@@H](Cc1c[nH]c2ccccc12)C(=O)NO)[C@@H](C)CC [Example 2, N-[(1,1-dimethylethoxy)carbonyl]-L-isoleucyl-L-isoleucyl-N-hydroxy-L-tryptophanamide] (Boc-Ile-Ile-Trp-{NHOH})
[1]; read-out: % ECE Inhibition
  inhibition at 100 µM: 47%

## CC[C@H](C)[C@H](N)C(=O)N[C@H](C(=O)N[C@@H](Cc1c[nH]c2ccccc12)C(=O)NO)[C@@H](C)CC [Example 6, L-isoleucyl-L--isoleucyl-N-hydroxy-L-tryptophanamide, monohydrochloride] (H-Ile-Ile-Trp-{NHOH})
[1]; read-out: % ECE Inhibition
  inhibition at 100 µM: 74%

## CC[C@H](C)[C@H](NC(=O)CCC(=O)O)C(=O)N[C@H](C(=O)N[C@@H](Cc1c[nH]c2ccccc12)C(=O)NO)[C@@H](C)CC [Example 10] (Suc-Ile-Ile-Trp-{NHOH})
[1]; read-out: IC50 (ECE inhibition)
  IC50: 4.7 µM

## CC[C@H](C)[C@H](NC(=O)CCCCCCCCCCN)C(=O)N[C@H](C(=O)N[C@@H](Cc1c[nH]c2ccccc12)C(=O)NOCc1ccccc1)[C@@H](C)CC [Example 12]
[1]; read-out: % ECE Inhibition
  inhibition at 100 µM: 65%

## CC[C@H](C)[C@H](NC(=O)CCCCCCCCCCN)C(=O)N[C@H](C(=O)N[C@@H](Cc1c[nH]c2ccccc12)C(=O)NO)[C@@H](C)CC [Example 13] (H-[Aun]IIW-{NHOH})
[1]; read-out: % ECE Inhibition
  inhibition at 10 µM: 22%
  inhibition at 50 µM: 57%

## COc1cccc(Oc2c(NS(=O)(=O)c3ccc(C(C)(C)C)cc3)ncnc2OCCO)c1 [RO 46-2005]
Rats [2]
  efficacy in subarachnoid hemorrhage model: effective
Rats [3]
  efficacy in acute renal ischemia model: effective

## CC(C)CC(=O)N[C@H](C(=O)N[C@H](C(=O)N[C@@H](CC(C)C)[C@@H](O)CC(=O)N[C@@H](C)C(=O)N[C@@H](CC(C)C)[C@@H](O)CC(=O)O)C(C)C)C(C)C [pepstatin] (Isovaleryl-VV[Sta]A[Sta]-OH)
[4]
  ET-1 production: did not inhibit ET-1 production

## CC(C)C[C@H](NP(=O)(O)O[C@@H]1O[C@@H](C)[C@H](O)[C@@H](O)[C@H]1O)C(=O)N[C@@H](Cc1c[nH]c2ccccc12)C(=O)O [phosphoramidon]
[5]
  intracellular conversion of big ET-1 to ET-1: inhibit the intracellular conversion of big ET-1 to ET-1
Anaesthetized pigs
  plasma ET-1 level: did not have any effect
  vasoconstrictor effects evoked by intravenous big ET-1: inhibit vasoconstrictor effects
[6]
  pressor response of big ET: block the pressor response of big ET

## N-[(1,1-dimethyl-ethoxy) carbonyl]-L-isoleucyl-L-isoleuyl-N-hydroxy-D-tryptophanamide [Example 3]
[1]; Conc. 100 μM
  % ECE Inhibition: 46%

## N-[(1,1-dimethyl-ethoxy) carbonyl]-L-isoleucyl-N-hydroxy-L-tryptophanamide [Example 4]
[1]; Conc. 100 μM
  % ECE Inhibition: 44%

## N-[(1,1-dimethylethoxy)-carbonyl]-L-α-aspartyl-L-isoleucyl-n-isoleucyl-1-formyl-N-hydroxy-n-tryptophanamide (Boc-DII[Trp(1-formyl)]-{NHOH}; not fully specified; printed as N-[(1,1-dimethylethoxy)-carbonyl]-L-α-aspartyl-L-isoleucyl-n-isoleucyl-1-formyl-N-hydroxy-n-tryptophanamide) [Example 22]
[1]; Conc. 10 μM
  % ECE Inhibition: 53%
[1]; Conc. 40 μM
  % ECE Inhibition: 73%
[1]; Conc. 100 μM
  % ECE Inhibition: 87%
